Tests used:
Format in all cases: in vivo
Setaria viridis = test: Post-emergence herbicidal action against SETVI; conditions: visual rating about 3 weeks after treatment
Protocol: (§1) Post-Emergence Herbicidal Action Against Harmful Plants and Crop Plant Compatibility Seeds of monocotyledonous and dicotyledonous weeds and crop plants are placed in sandy loam in plastic or wood-fibre pots, covered with soil and cultivated in a greenhouse under controlled growth conditions. 2 to 3 weeks after sowing, the test plants are treated at the one-leaf stage. The compounds of the invention, formulated in the form of wettable powders (WP) or as emulsion concentrates (EC), are then sprayed onto the green parts of the plants as aqueous suspension or emulsion with addition of 0.5% additive at a water application rate of 600 l/ha (converted). After the test plants have been kept in the greenhouse under optimum growth conditions for about 3 weeks, the activity of the preparations is rated visually in comparison to untreated controls. For example, 100% activity=the plants have died, 0% activity=like control plants. [table]

Alopecurus myosuroides = test: Post-emergence herbicidal action against ALOMY; conditions: 20 g a.i./ha, visual rating about 3 weeks after treatment
Protocol: as §1

Echinochloa crus-galli = test: Post-emergence herbicidal action against ECHCG; conditions: 20 g a.i./ha, visual rating about 3 weeks after treatment
Protocol: as §1

Amaranthus retroflexus = test: Post-emergence herbicidal action against AMARE; conditions: 20 g a.i./ha
Protocol: as §1

Veronica persica = test: Post-emergence herbicidal action against VERPE; conditions: 20 g a.i./ha
Protocol: as §1

DIGSA = test: Post-emergence herbicidal action against DIGSA; conditions: 20 g a.i./ha, visual rating about 3 weeks after treatment
Protocol: as §1, with “plants.” for “plants. [table]”

Polygonum convolvulus = test: Post-emergence herbicidal action against POLCO; conditions: 20 g a.i./ha
Protocol: as §1

Pharbitis purpurea = test: Post-emergence herbicidal action against PHBPU; conditions: 20 g a.i./ha
Protocol: as §1

Lolium rigidum = test: Post-emergence herbicidal action against LOLRI; conditions: 20 g a.i./ha, visual rating about 3 weeks after treatment
Protocol: as §1

Avena fatua = test: Post-emergence herbicidal action against AVEFA; conditions: 20 g a.i./ha, visual rating about 3 weeks after treatment
Protocol: as §1

SMILES | Herbicidal action against [%] SETVI (Setaria viridis; 20 g a.i./ha) [%] | Herbicidal action against [%] ALOMY (Alopecurus myosuroides) [%] | Herbicidal action against [%] ECHCG (Echinochloa crus-galli) [%] | Herbicidal action against [%] AMARE (Amaranthus retroflexus) [%] | Herbicidal action against [%] VERPE (Veronica persica) [%] | Herbicidal action against [%] DIGSA (DIGSA) [%] | Herbicidal action against [%] POLCO (Polygonum convolvulus) [%] | Herbicidal action against [%] PHBPU (Pharbitis purpurea) [%] | Herbicidal action against [%] LOLRI (Lolium rigidum) [%] | Herbicidal action against [%] SETVI (Setaria viridis; 80 g a.i./ha) [%] | Herbicidal action against [%] AVEFA (Avena fatua) [%]
C[S+]([O-])CCOC(=O)C1C=CC(NC(=O)C2(C)CC(c3cccc(F)c3)=NO2)C1 (mixture of isomers) [Example I-61] | 80 | 80 | 80 | 80 | 80 |  |  |  |  |  | 
CC1(C(=O)NC2C=CC(C(=O)OCCSC3CCCCC3)C2)CC(c2cc(F)cc(F)c2)=NO1 (stereo not shown) [Example I-03] | 80 | 90 | 80 |  |  | 80 | 80 | 80 |  |  | 
CC(C)C(=O)SCCOC(=O)C1C=CC(NC(=O)C2(C)CC(c3cc(F)cc(F)c3)=NO2)C1 (stereo not shown) [Example I-05] | 80 | 100 | 80 |  | 80 | 80 | 80 | 80 |  |  | 
CC(=O)CCSCCOC(=O)C1C=CC(NC(=O)C2(C)CC(c3cc(F)cc(F)c3)=NO2)C1 (stereo not shown) [Example I-15] |  | 90 | 80 |  | 80 | 80 | 80 |  | 80 |  | 
CSCCOC(=O)C1C=CC(NC(=O)C2(C3CC3)CC(c3cc(F)cc(F)c3)=NO2)C1 (stereo not shown) [Example I-27] |  |  |  |  |  |  |  |  |  | 90 | 
CSCCOC(=O)C1C=CC(NC(=O)C2(C)CC(c3cc(C#N)cc(C#N)c3)=NO2)C1 (stereo not shown) [Example I-52] |  | 90 |  |  | 80 |  | 80 | 80 |  |  | 80
C=CC1(C(=O)NC2C=CC(C(=O)OCCSC)C2)CC(c2cc(C)cc(F)c2)=NO1 (stereo not shown) [Example I-56] |  | 80 |  |  |  |  | 80 |  | 80 |  | 
CSCCOC(=O)C1C=CC(NC(=O)C2(CCl)CC(c3cc(F)cc(C#N)c3)=NO2)C1 (stereo not shown) [Example I-58] |  | 90 | 80 |  | 80 |  | 80 |  |  |  | 80
CSCCOC(=O)C1C=CC(NC(=O)C2(C)CC(c3cc(C)cc(F)c3)=NO2)C1 (stereo not shown) [Example I-59] |  |  | 80 | 80 | 80 | 90 |  | 80 |  |  | 
CSCCOC(=O)C1C=CC(NC(=O)C2(CCl)CC(c3cc(F)cc(F)c3)=NO2)C1 (stereo not shown) [Example I-60] |  | 80 | 80 | 80 |  |  | 80 |  | 80 |  | 80
CSCCOC(=O)C1C=CC(NC(=O)C2(CO)CC(c3cc(F)cc(F)c3)=NO2)C1 (stereo not shown) [Example I-70] | 90 | 100 | 90 |  |  |  | 80 | 80 |  |  | 80
CSCCOC(=O)C1C=CC(NC(=O)C2(C)CC(c3cc(Cl)cc(C#N)c3)=NO2)C1 (stereo not shown) [Example I-72] | 90 | 90 | 80 | 80 | 80 | 90 | 80 |  | 90 |  | 80

Reference: patent US12185723B2, “Herbicidally active 3-phenylisoxazoline-5-carboxamides of s-containing cyclopentenylcarboxylic esters” (Bayer Aktiengesellschaft, priority 2019, dated 2025)
